Assays:
SARS-CoV-2 M^pro [1] = biological target: T1, SARS-CoV-2 M^pro (Severe acute respiratory syndrome coronavirus 2, UniProt P0DTD1); assay: Binding to SARS-CoV-2 M^pro using native mass spectrometry; settings: 10 μM ligand, 4 mM DTT
SARS-CoV-2 M^pro [2] = biological target: T1, SARS-CoV-2 M^pro; assay type: biochemical; settings: versus GC-376
SARS-CoV-2 HM-M^pro = SARS-CoV-2 HM-M^pro (Severe acute respiratory syndrome coronavirus 2, UniProt P0DTD1); assay type: binding

## CC(C)C[C@H](NC(=O)OCc1ccccc1)C(=O)N[C@@H](CC(C)C)C(=O)N[C@@H](CC1CCNC1=O)C(=O)C(=O)NC1CC1 (stereo partly drawn) [UAWJ248]
SARS-CoV-2 M^pro [1]
  binding to M^pro by native mass spectrometry: confirmed
SARS-CoV-2 M^pro [2]
  fold more potent than GC-376 (k2/KI): 3.2 fold
SARS-CoV-2 HM-M^pro
  ΔTm shift, HM-M^pro construct: 10.01 °C

— article PMC7725459 (Science Advances, 2020)
